# Measured values taken from patent US11713447B2, “Production of megakaryoctye compositions and therapies for treatment of thrombocytopenia” (Icahn School of Medicine at Mount Sinai, priority 2016, dated 2023).
# Legend:
# [1] = system: Cord blood (CB) CD34+ cells; assay: Ex vivo expansion of CB CD34+ cells in serum-free culture with valproic acid; type: cell-based
# Experimental: Cord blood (CB) CD34+ cells were obtained and separated into a testing group and a control group. The groups were subjected to the following cell culture protocol:
# The CB CD34+ cells were primed with a cytokine cocktail and plated in serum-free (SF) culture. The cytokine cocktail included stem cell factor (SCF) at an amount of 150 ng/mL, interleukin-3 (IL-3) at an amount of 50 ng/mL, Fms-like tyrosine kinase 3 (FLT-3) at an amount of 100 ng/mL, and thrombopoietin (TPO) at an amount of 100 ng/mL.
# 1 mM valproic acid (VPA) was added to the SF culture (testing group only). No VPA was added to the control group.
# The cells were allowed to expand in the SF culture and collected at Day 7. Total CD34+ cell expansion was around 200-fold.
# [2] = system: Cord blood (CB) CD34+ cells; assay: TPO-mediated MK differentiation after VPA expansion of CB CD34+ cells; type: cell-based
# Experimental: For this, 50,000 cryopreserved CB CD34+ cells were plated in serum-free (SF) media supplemented with stem cell factor (SCF), interleukin-3 (IL-3), Fms-like tyrosine kinase 3 (FLT-3), and TPO and allowed to expand with or without VPA (testing vs. control), as described in Example 1 above. After 7 days, instead of collecting, the cells were washed to remove VPA and cytokines, and re-plated in SF medium supplemented only with TPO. Approximately 50% more CD41+ MKs were detected in the VPA-expanded cultures than in cultures expanded with only cytokines (FIG. 3A). This corresponded to a final yield of ˜40 MKs generated from 1 CD34+ cell plated in the presence of VPA compared to […] CD41+ MKs generated by 1 CD34+ cell plated in the absence of VPA. q-PCR analyses confirmed upregulation of MK-specific genes (GATA1, PF4, and NFE2) in the cultures exposed to VPA before MK differentiation (FIG. 3B).
compound,measurement,setting,value
"CCCC(CCC)C(=O)O [VPA, valproic acid]",number of CD34+ cells in VPA-treated cultures relative to cells expanded in the absence of VPA,"[1]; 1 mM VPA added day 1, SF culture with SCF, IL-3, FLT-3, TPO",> 200 fold
same,Total CD34+ cell expansion,"[1]; 1 mM VPA, SF culture, collected at Day 7",around 200 fold
same,CD41+ MK cells in expanded HSCs,[1]; VPA-treated SF culture,8.9±2%
same,glycophorin (GPA)+ erythroid cells in expanded HSCs,[1]; VPA-treated SF culture,17±5.4%
same,primitive CD34+/CD90+ cells in expanded HSCs,[1]; VPA-treated SF culture,74.2±9.8%
same,more CD41+ MKs in VPA-expanded cultures than in cultures expanded with only cytokines,"[2]; 7 days expansion with VPA, then SF medium with TPO only",Approximately 50%
same,"q-PCR expression of MK-specific genes (GATA1, PF4, and NFE2)",[2]; cultures exposed to VPA before MK differentiation,upregulation
same,final yield of MKs generated from 1 CD34+ cell plated,[2]; plated in the presence of VPA,40 MKs generated from 1 CD34+ cell
